Measured values taken from patent US10875857B2, “1-amino-triazolo(1,5-A)pyridine-substituted urea derivative and uses thereof” (Kala Pharmaceuticals, Inc., priority 2014, dated 2020).

Assays:
VEGFR2 = target: T1, VEGFR2 (Homo sapiens, UniProt P35968); assay: Cellular VEGFR2 tyrosine auto-phosphorylation assay in HUE cells after VEGF-A stimulation (sandwich ELISA); assay type: cell-based; conditions: 90 min incubation with compound, then 3 min stimulation with 100 ng/ml VEGF-A, phosphorylated VEGFR2 by ELISA, read-out: cellular 1050 values, VEGFR2
T1 construct: The human umbilical endothelial (HUE) cell line expresses high levels of VEGFR2; endogenous in cells; host or cells: HUE (human umbilical endothelial) cell line
T1 sequence (P35968 20-1356): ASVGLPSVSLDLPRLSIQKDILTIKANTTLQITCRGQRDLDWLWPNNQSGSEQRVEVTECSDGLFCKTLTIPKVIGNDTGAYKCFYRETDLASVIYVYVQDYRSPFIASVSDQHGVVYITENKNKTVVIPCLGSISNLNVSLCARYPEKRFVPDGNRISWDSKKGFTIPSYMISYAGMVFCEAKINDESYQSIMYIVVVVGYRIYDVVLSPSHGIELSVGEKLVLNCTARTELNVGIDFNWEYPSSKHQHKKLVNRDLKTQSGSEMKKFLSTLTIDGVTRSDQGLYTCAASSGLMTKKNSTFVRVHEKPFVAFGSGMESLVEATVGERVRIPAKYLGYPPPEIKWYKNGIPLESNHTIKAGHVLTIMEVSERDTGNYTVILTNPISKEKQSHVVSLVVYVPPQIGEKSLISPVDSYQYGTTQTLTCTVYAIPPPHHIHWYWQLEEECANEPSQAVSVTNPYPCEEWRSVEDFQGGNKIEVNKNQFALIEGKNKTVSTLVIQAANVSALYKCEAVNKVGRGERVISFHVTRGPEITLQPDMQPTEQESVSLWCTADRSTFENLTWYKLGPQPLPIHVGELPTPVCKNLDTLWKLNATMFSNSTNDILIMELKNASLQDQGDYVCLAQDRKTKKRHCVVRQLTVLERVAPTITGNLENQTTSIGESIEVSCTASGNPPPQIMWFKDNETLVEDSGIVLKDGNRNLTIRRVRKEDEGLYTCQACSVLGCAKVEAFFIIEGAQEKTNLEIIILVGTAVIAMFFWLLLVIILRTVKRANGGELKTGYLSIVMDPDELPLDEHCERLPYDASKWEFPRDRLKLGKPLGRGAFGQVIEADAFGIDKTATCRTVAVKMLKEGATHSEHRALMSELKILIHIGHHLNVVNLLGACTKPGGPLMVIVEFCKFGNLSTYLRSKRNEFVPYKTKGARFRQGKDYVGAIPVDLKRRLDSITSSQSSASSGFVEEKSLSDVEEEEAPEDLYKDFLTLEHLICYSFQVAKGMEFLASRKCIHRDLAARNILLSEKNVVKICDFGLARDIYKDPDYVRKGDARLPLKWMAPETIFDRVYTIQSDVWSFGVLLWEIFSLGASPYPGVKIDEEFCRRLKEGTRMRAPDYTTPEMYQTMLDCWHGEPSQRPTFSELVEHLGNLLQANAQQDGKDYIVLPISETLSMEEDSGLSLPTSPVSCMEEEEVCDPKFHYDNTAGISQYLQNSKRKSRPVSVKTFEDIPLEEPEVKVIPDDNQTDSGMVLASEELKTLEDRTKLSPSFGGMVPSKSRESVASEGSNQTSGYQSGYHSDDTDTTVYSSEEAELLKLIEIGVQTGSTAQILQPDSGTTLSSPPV
Method: The human umbilical endothelial (HUE) cell line expresses high levels of VEGFR2. The compound prepared in Example 2 above, 1-(4-(3-amino-[1,2,3]triazolo[1,5-a]pyridin-4-yl)phenyl)-3-(3-chlorophenyl)urea, was tested for the ability to inhibit tyrosine auto-phosphorylation of this receptor after stimulation with vascular endothelial growth factor A (VEGF-A). HUE cells were plated into multi-well cell culture plates in endothelial cell growth medium (ECGM) supplemented with 10% fetal calf serum (FCS). After starvation in endothelial cell basal medium (ECBM) supplemented with […] overnight cells were incubated with compounds in serum-free ECBM. […] Cells were incubated for 90 min at 37° C. in ECBM with the serial diluted compound and then stimulated for 3 min with 100 ng/ml VEGF-A. Cells were lysed, and then levels of phosphorylated VEGFR2 were determined in a sandwich ELISA assay formatted in a multi-well plate using a VEGFR2 specific capture antibody and an anti-phosphotyrosine VEGFR2 detection antibody. […] IC50 values were determined by fitting the converted eight point dose response data to a four-parameter logistic equation using GRAPHPAD PRISM® 5.01 software.

PDGFR-β = target: T2, PDGFR-β (Mus musculus, UniProt P05622); assay: Cellular PDGFR-β tyrosine auto-phosphorylation assay in NIH3T3 cells after PDGF-BB stimulation (sandwich ELISA); assay type: cell-based, murine; conditions: 90 min incubation with compound, then 3 min stimulation with 100 ng/ml PDGF-BB, phosphorylated PDGFR-β by ELISA, read-out: cellular 1050 values, PDGFR-β
T2 construct: The murine embryonal fibroblast cell line NIH3T3 expresses endogenously high levels of PDGFR-β; endogenous in cells; host or cells: NIH3T3 murine embryonal fibroblast cell line
T2 sequence (P05622 32-1098): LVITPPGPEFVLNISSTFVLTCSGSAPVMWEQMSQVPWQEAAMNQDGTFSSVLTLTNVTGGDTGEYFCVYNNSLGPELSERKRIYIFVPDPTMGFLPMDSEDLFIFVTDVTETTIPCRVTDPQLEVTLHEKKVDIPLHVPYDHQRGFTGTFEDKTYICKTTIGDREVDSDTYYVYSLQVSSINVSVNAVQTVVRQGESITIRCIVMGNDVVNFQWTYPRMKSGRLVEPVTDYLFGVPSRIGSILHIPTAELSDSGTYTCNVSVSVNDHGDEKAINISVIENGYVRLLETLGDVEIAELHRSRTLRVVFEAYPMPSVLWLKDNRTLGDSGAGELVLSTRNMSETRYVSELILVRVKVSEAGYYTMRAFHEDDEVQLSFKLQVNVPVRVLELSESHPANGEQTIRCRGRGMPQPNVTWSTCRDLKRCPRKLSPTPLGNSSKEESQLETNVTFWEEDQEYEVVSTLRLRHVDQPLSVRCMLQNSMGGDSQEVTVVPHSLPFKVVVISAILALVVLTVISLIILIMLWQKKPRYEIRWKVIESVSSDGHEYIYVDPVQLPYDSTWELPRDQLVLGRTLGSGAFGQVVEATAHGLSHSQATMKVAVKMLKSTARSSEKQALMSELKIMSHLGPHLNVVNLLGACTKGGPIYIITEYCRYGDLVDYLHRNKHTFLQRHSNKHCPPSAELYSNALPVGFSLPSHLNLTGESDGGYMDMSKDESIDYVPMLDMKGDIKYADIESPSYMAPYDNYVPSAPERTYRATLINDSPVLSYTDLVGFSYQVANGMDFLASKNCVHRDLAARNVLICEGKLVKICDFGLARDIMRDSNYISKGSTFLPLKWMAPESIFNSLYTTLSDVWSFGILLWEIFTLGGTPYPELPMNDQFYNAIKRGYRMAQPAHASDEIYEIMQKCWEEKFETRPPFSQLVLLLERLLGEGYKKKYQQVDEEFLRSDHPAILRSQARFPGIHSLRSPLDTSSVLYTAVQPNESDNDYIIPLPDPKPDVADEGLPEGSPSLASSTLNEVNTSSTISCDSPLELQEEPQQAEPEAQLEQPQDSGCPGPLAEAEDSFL
Method: The murine embryonal fibroblast cell line NIH3T3 expresses endogenously high levels of PDGFR-β. The compound prepared in Example 2 above was tested for the ability to inhibit tyrosine auto-phosphorylation of this receptor after stimulation with platelet-derived growth factor BB (PDGF-BB). The NIH3T3 cells were plated into multi-well cell culture plates in Dulbecco's Modified Eagle Medium (DMEM) supplemented with 10% FCS. The medium was removed and then replaced with DMEM without FCS and cells serum starved overnight at 37° C. On the day of the assay the compound was 1:3 serial diluted from 10 mM stocks in 100% DMSO and then were 1:100 diluted to each well of cells in DMEM without FCS to create final solutions containing 1% DMSO and an eight point compound dose response curve starting at 10^−6 M, 10^−7 M, or 10^−8 M. The compound was added in duplicate to columns of the multi-well plate. […] Cells were lysed, and then levels of phosphorylated PDGFR-β were determined in a sandwich ELISA assay formatted in a multi-well plate using a PDGFR-β specific capture antibody and an anti-phosphotyrosine PDGFR-β detection antibody. […] IC50 values were determined by fitting the converted eight point dose response data to a four-parameter logistic equation using GRAPHPAD PRISM® 5.01 software.

## Nc1nnn2cccc(-c3ccc(NC(=O)Nc4cccc(Cl)c4)cc3)c12 [compound of Formula (I), 1-(4-(3-amino-[1,2,3]triazolo[1,5-a]pyridin-4-yl)phenyl)-3-(3-chlorophenyl)urea]
VEGFR2
  IC50: 0.37 nM
PDGFR-β
  IC50: 3.2 nM
